US20240398757A1 (COCRYSTAL PHARMA, INC., priority 2022, published 2024)

Molecular target: T1, SARS2 protease (Severe acute respiratory syndrome coronavirus 2, UniProt P0DTD1)
T1 construct: SARS2 protease was added to a final concentration of 30 nM
Assay: SARS-CoV-2 protease inhibition assay (SARS2 FRET protease assay)
Assay type: biochemical
Conditions: IC50 (μM), SARS2 protease 30 nM, peptide substrate 1.3 μM, 120 minutes at 37° C., compounds 20 μM to 0.075 nM

Structure (SMILES) | IC50
O=C(N[C@@H](CC1CCCCC1)C(=O)N[C@@H](C[C@@H]1CCNC1=O)C(O)S(=O)(=O)O)O[C@@H](c1ccccc1)C(F)(F)c1cccc(F)c1 (some centres unmarked) [Compound A133] | 0.002 µM
CCNC(=O)C(=O)[C@H](C[C@@H]1CCNC1=O)NC(=O)[C@H](CC1CCCCC1)NC(=O)O[C@H](c1ccccc1)C(F)(F)c1cccc(Cl)c1 [Compound A134] | 1.18 µM
O=C(N[C@@H](CC1CCCCC1)C(=O)N[C@@H](C[C@@H]1CCNC1=O)C(O)S(=O)(=O)O)O[C@H](c1ccccc1)C(F)(F)c1cccc(Cl)c1 (some centres unmarked) [Compound A135] | 0.0022 µM
CCCC[C@H](NC(=O)OC(c1ccccc1)C1(c2cccc(Cl)c2)CC1)C(=O)N[C@@H](C[C@@H]1CCNC1=O)C(=O)C(=O)NC1CC1 (some centres unmarked) [Compound A136] | 0.083 µM
CCCC[C@H](NC(=O)O[C@H](c1ccccc1)C(F)(F)c1cccc(Cl)c1)C(=O)N[C@@H](C[C@@H]1CCNC1=O)C(=O)C(=O)NC1CC1 [Compound A137] | 0.0005 µM
CCCC[C@H](NC(=O)OC(c1ccccc1)C(F)(F)c1cccc(Cl)c1)C(=O)N[C@@H](C[C@@H]1CCNC1=O)C(=O)C(=O)NCC (some centres unmarked) [Compound A138] | 0.028 µM
CC(C)C[C@H](NC(=O)O[C@@H](c1cccc(Cl)c1)C(C)(C)c1cccc(Cl)c1)C(=O)N[C@H](C=O)C[C@@H]1CCNC1=O [Compound A139] | 0.003 µM
CC(C)C[C@H](NC(=O)O[C@H](c1cccc(Cl)c1)C(C)(C)c1cccc(Cl)c1)C(=O)N[C@H](C=O)C[C@@H]1CCNC1=O [Compound A140] | 0.045 µM
O=C(N[C@@H](CC1CCCCC1)C(=O)N[C@@H](C[C@@H]1CCNC1=O)C(O)S(=O)(=O)O)O[C@@H](c1ccccc1)C(F)(F)c1cccc(Cl)c1 (stereo partly drawn) [Compound A141, sodium (2S)-2-((S)-2-((((S)-2-(3-chlorophenyl)-2,2-difluoro-1-phenylethoxy)carbonyl)amino)-3-cyclohexylpropanamido)-1-hydroxy-3-((S)-2-oxopyrrolidin-3-yl)propane-1-sulfonate] | 0.055 µM
CC(C)C[C@H](NC(=O)O[C@@H](c1cccc(Cl)c1)C(C)(C)c1cccc(Cl)c1)C(=O)N[C@@H](C[C@@H]1CCNC1=O)C(=O)C(=O)NC1CC1 [Compound A142] | 0.032 µM
CCCC[C@H](NC(=O)O[C@@H](c1ccccc1)C(F)(F)c1cccc(F)c1)C(=O)N[C@H](C=O)C[C@@H]1CCNC1=O [Compound A143] | 0.004 µM
CCCC[C@H](NC(=O)O[C@H](c1ccccc1)C(F)(F)c1cccc(F)c1)C(=O)N[C@H](C=O)C[C@@H]1CCNC1=O [Compound A144] | 0.023 µM
CCC[C@H](NC(=O)OC(c1ccccc1)C(F)(F)c1cccc(Cl)c1)C(=O)N[C@@H](C[C@@H]1CCNC1=O)C(=O)C(=O)NCC (some centres unmarked) [Compound A145] | 0.15 µM
CCCC[C@H](NC(=O)O[C@H](c1ccccc1)C(F)(F)c1cccc(Cl)c1)C(=O)N[C@H](C=O)C[C@@H]1CCCNC1=O [Compound A146] | 0.038 µM
CC(C)C[C@H](NC(=O)O[C@H](c1cccc(Cl)c1)C(C)(C)c1cccc(Cl)c1)C(=O)N[C@@H](C[C@@H]1CCNC1=O)C(=O)C(=O)NC1CC1 [Compound A147] | 0.558 µM
CCC[C@H](NC(=O)O[C@@H](c1ccc(F)cc1)C(F)(F)c1cccc(Cl)c1)C(=O)N[C@H](C=O)C[C@@H]1CCNC1=O [Compound A148] | 0.007 µM
CC(C)C[C@H](NC(=O)O[C@H](c1ccc(F)cc1)C(F)(F)c1cccc(Cl)c1)C(=O)N[C@H](C=O)C[C@@H]1CCNC1=O [Compound A149] | 0.0001 µM
CCCC[C@H](NC(=O)O[C@@H](c1ccccc1)C(F)(F)c1cccc(Cl)c1)C(=O)N[C@H](C=O)C[C@@H]1CCCNC1=O [Compound A150] | < 0.0001 µM
CCCCC[C@H](NC(=O)O[C@@H](c1ccccc1)C(F)(F)c1cccc(Cl)c1)C(=O)N[C@H](C=O)C[C@@H]1CCNC1=O [Compound A151] | 0.0002 µM
CC(C)C[C@H](NC(=O)O[C@H](c1ccccc1)C(F)(F)c1cccc(F)c1)C(=O)N[C@H](C=O)C[C@@H]1CCNC1=O [Compound A152] | 0.0078 µM
CCC[C@H](NC(=O)O[C@@H](c1ccccc1)C(F)(F)c1cccc(Cl)c1)C(=O)N[C@H](C=O)C[C@@H]1CCNC1=O [Compound A153] | 0.0006 µM
O=C[C@H](C[C@@H]1CCCNC1=O)NC(=O)[C@H](CC1CCCCC1)NC(=O)O[C@@H](c1ccccc1)C(F)(F)c1cccc(Cl)c1 [Compound A154] | 0.334 µM
O=C[C@H](C[C@@H]1CCCNC1=O)NC(=O)[C@H](CC1CCCCC1)NC(=O)O[C@H](c1ccccc1)C(F)(F)c1cccc(Cl)c1 [Compound A155] | 0.611 µM
O=C[C@H](C[C@@H]1CCNC1=O)NC(=O)[C@H](CC1CC1)NC(=O)O[C@@H](c1ccccc1)C(F)(F)c1cccc(Cl)c1 [Compound A156] | 0.289 µM
O=C[C@H](C[C@@H]1CCNC1=O)NC(=O)[C@H](CC1CC1)NC(=O)O[C@H](c1ccccc1)C(F)(F)c1cccc(Cl)c1 [Compound A157] | 0.0002 µM

Structure (SMILES) | IC50
CC(C)C[C@H](NC(=O)O[C@@H](c1ccccc1)C(C)(C)c1cccc(Cl)c1)C(=O)N[C@H](C=O)C[C@@H]1CCCNC1=O [Compound A158] | 0.002 µM
CCCC[C@H](NC(=O)O[C@@H](c1ccc(F)cc1)C(F)(F)c1cccc(Cl)c1)C(=O)N[C@H](C=O)C[C@@H]1CCNC1=O [Compound A159] | 0.003 µM
CCCC[C@H](NC(=O)O[C@H](c1ccc(F)cc1)C(F)(F)c1cccc(Cl)c1)C(=O)N[C@H](C=O)C[C@@H]1CCNC1=O [Compound A160] | 0.47 µM
O=C[C@H](C[C@H]1CCNC1=O)NC(=O)[C@H](CC1CCCCC1)NC(=O)OC(c1ccccc1)C(F)(F)c1cccc(Cl)c1 (some centres unmarked) [Compound A161] | 0.582 µM
O=C[C@H](C[C@@H]1CCNC1=O)NC(=O)[C@H](CCC(F)F)NC(=O)OC(c1ccccc1)C(F)(F)c1cccc(Cl)c1 (stereo partly drawn) [Compound A163, 2-(3-chlorophenyl)-2,2-difluoro-1-phenylethyl ((S)-5,5-difluoro-1-oxo-1-(((S)-1-oxo-3-((S)-2-oxopyrrolidin-3-yl)propan-2-yl)amino)pentan-2-yl)carbamate] | 0.017 µM
CCC[C@H](NC(=O)O[C@@H](c1ccccc1)C(F)(F)c1cccc(F)c1)C(=O)N[C@H](C=O)C[C@@H]1CCNC1=O [Compound A166] | 0.0025 µM
CCCC[C@H](NC(=O)OC(c1ccccc1)C(F)(F)c1cccc(Cl)c1)C(=O)N[C@@H](C[C@H]1CCNC1=O)C(=O)C(=O)NC1CC1 (some centres unmarked) [Compound A168] | 0.75 µM
O=C(N[C@@H](CC1CCCCC1)C(=O)N[C@@H](C[C@H]1CCNC1=O)C(=O)C(=O)NC1CC1)OC(c1ccccc1)C(F)(F)c1cccc(Cl)c1 (some centres unmarked) [Compound A169] | 1.25 µM
CC(C)C[C@H](NC(=O)OC(c1ccccc1)C(F)(F)c1cccc(C2CC2)c1)C(=O)N[C@@H](C[C@@H]1CCNC1=O)C(=O)C(=O)NC1CC1 (some centres unmarked) [Compound A170] | 0.0002 µM
CC(C)C[C@H](NC(=O)OC(c1ccccc1)C(C)(C)c1cccc(C(F)(F)F)c1)C(=O)N[C@H](C=O)C[C@@H]1CCNC1=O (some centres unmarked) [Compound A171] | 0.0001 µM
CCC[C@H](NC(=O)O[C@H](c1ccccc1)C(F)(F)c1cccc(F)c1)C(=O)N[C@H](C=O)C[C@@H]1CCNC1=O [Compound A172] | 0.0185 µM
CCNC(=O)C(=O)[C@H](C[C@@H]1CCNC1=O)NC(=O)[C@H](CC1CC1)NC(=O)O[C@@H](c1ccccc1)C(F)(F)c1cccc(Cl)c1 [Compound A174] | 0.0014 µM
O=C(N[C@@H](CC1CCCCC1)C(=O)N[C@@H](C[C@@H]1CCNC1=O)C(=O)C(=O)NC1CC1)O[C@H](c1ccccc1)C(F)(F)c1cccc(Cl)c1 [Compound A175] | 1.36 µM
O=C(N[C@@H](CC1CC1)C(=O)N[C@@H](C[C@@H]1CCNC1=O)C(=O)C(=O)NC1CC1)O[C@@H](c1ccccc1)C(F)(F)c1cccc(Cl)c1 [Compound A176] | 0.002 µM
CCCC[C@H](NC(=O)O[C@H](c1ccccc1)C(C)(C)c1cccc(Cl)c1)C(=O)N[C@@H](C[C@@H]1CCNC1=O)C(=O)C(=O)NC1CC1 [Compound A178] | 1.04 µM
O=C(N[C@@H](CCC(F)F)C(=O)N[C@@H](C[C@@H]1CCNC1=O)C(=O)C(=O)NC1CC1)OC(c1ccccc1)C(F)(F)c1cccc(Cl)c1 (stereo partly drawn) [Compound A179, 2-(3-chlorophenyl)-2,2-difluoro-1-phenylethyl ((S)-1-(((S)-4-(cyclopropylamino)-3,4-dioxo-1-((S)-2-oxopyrrolidin-3-yl)butan-2-yl)amino)-5,5-difluoro-1-oxopentan-2-yl)carbamate] | 0.006 µM
O=C(N[C@@H](CCCF)C(=O)N[C@@H](C[C@@H]1CCNC1=O)C(=O)C(=O)NC1CC1)OC(c1ccccc1)C(F)(F)c1cccc(Cl)c1 (some centres unmarked) [Compound A180] | 0.095 µM
CC(C)C[C@H](NC(=O)OC(C(C)C)C(F)(F)c1cccc(C2CC2)c1)C(=O)N[C@@H](C[C@@H]1CCNC1=O)C(=O)C(=O)NC1CC1 (some centres unmarked) [Compound A181] | 0.52 µM
CC(C)C[C@H](NC(=O)OC(c1ccccc1)C(F)(F)c1cccc(C(C)C)c1)C(=O)N[C@@H](C[C@@H]1CCNC1=O)C(=O)C(=O)NC1CC1 (some centres unmarked) [Compound A182] | 0.001 µM
CCCC[C@H](NC(=O)OC(c1ccccc1)C(F)(F)c1cccc(Cl)c1)C(=O)N[C@H](C=O)C[C@H]1CCNC1=O (some centres unmarked) [Compound A183] | 0.019 µM
CCCC[C@H](NC(=O)OC(c1ccccc1)C(F)(F)c1cccc(Cl)c1)C(=O)N[C@@H](C[C@H]1CCNC1=O)C(=O)C(=O)NCC (some centres unmarked) [Compound A185] | 0.91 µM
CCCC(=O)OC([C@H](C[C@@H]1CCNC1=O)NC(=O)[C@H](CC1CCCCC1)NC(=O)O[C@H](c1ccccc1)C(F)(F)c1cccc(Cl)c1)S(=O)(=O)O (some centres unmarked) [Compound A186] | 0.319 µM
CCNC(=O)C(=O)[C@H](C[C@H]1CCNC1=O)NC(=O)[C@H](CC(C)C)NC(=O)OC(c1ccccc1)C(F)(F)c1cccc(Cl)c1 (some centres unmarked) [Compound A188] | 0.392 µM
CCCC[C@H](NC(=O)OC(c1ccccc1)C(C)(C)c1cccc(Cl)c1)C(=O)N[C@@H](C[C@@H]1CCNC1=O)C(=O)C(=O)NC1CC1 (some centres unmarked) [Compound A189] | 1.37 µM
CC(C)C[C@H](NC(=O)OC(c1ccccc1)C(F)(F)c1cccc(-c2ccccc2)c1)C(=O)N[C@@H](C[C@@H]1CCNC1=O)C(=O)C(=O)NC1CC1 (some centres unmarked) [Compound A191] | 0.006 µM
